Tested on: HIV-1 (H9IIIB strain)
Assay: Cell-based HIV infection assay using a reporter (Cell-Based), MT4-GFP cells
Details: Human immunodeficiency virus 1, MT4-GFP cells infected with HIV-1 H9IIIB; 50% normal human serum; mean of at least two independent experiments; read-out: Cell-based IP
Method in brief: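 IC50 from 4-parameter dose-response of % viral growth inhibition, using the 48 h/24 h infected-cell ratio scaled between DMSO and a protease/integrase/NNRTI triple-drug control. Assay used MT4 cells with HIV-LTR-GFP reporter, pre-infected 24 h with HIV-1 H9IIIB, in 50% normal human serum.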

| Compound | IC50 |
| --- | --- |
| CC(C)[C@H](c1ccc(Cl)cc1)[C@H](N)C(=O)Nc1cncc(F)c1CC[C@H]1CNC[C@H](C)N1S(=O)(=O)C1CC1 [Example 177, (βR)-4-chloro-N-(4-{2-[(2S,6S)-1-(cyclopropylsulfonyl)-6-methylpiperazin-2-yl]ethyl}-5-fluoropyridin-3-yl)-β-(1-methylethyl)-L-phenylalaninamide] | 0.095 µM |
| CC(C)[C@H](c1ccc(Cl)cc1)[C@H](N)C(=O)Nc1cncc(F)c1CC[C@H]1CNC[C@@H](C)N1S(=O)(=O)C1CC1 [Example 178, (βR)-4-chloro-N-(4-{2-[(2S,6R)-1-(cyclopropylsulfonyl)-6-methylpiperazin-2-yl]ethyl}-5-fluoropyridin-3-yl)-β-(1-methylethyl)-L-phenylalaninamide] | 0.34 µM |
| COC(=O)N[C@H](C(=O)Nc1cncc(F)c1CC[C@H]1CNC[C@H](C)N1S(=O)(=O)C1CC1)[C@@H](c1ccc(Cl)cc1)C(C)C [Example 179, (βR)-4-chloro-N-(4-{2-[(2S,6S)-1-(cyclopropylsulfonyl)-6-methylpiperazin-2-yl]ethyl}-5-fluoropyridin-3-yl)-Nα-(methoxycarbonyl)-β-(1-methylethyl)-L-phenylalaninamide] | 0.033 µM |
| COC(=O)N[C@H](C(=O)Nc1cncc(F)c1CC[C@H]1CNC[C@@H](C)N1S(=O)(=O)C1CC1)[C@@H](c1ccc(Cl)cc1)C(C)C [Example 180, (βR)-4-chloro-N-(4-{2-[(2S,6R)-1-(cyclopropylsulfonyl)-6-methylpiperazin-2-yl]ethyl}-5-fluoropyridin-3-yl)-Nα-(methoxycarbonyl)-β-(1-methylethyl)-L-phenylalaninamide] | 0.069 µM |
| C[C@@H]1CNC[C@H](CCc2c(F)cccc2NC(=O)[C@@H](N)C(c2cccc(F)c2)c2cccc(F)c2)N1S(=O)(=O)C1CC1 [Example 181, N-(2-{2-[(2S,6R)-1-(cyclopropylsulfonyl)-6-methylpiperazin-2-yl]ethyl}-3-fluorophenyl)-3-fluoro-β-(3-fluorophenyl)-L-phenylalaninamide] | 0.17 µM |
| C[C@@H]1CNC[C@H](CCc2c(F)cncc2NC(=O)[C@@H](N)[C@@H](c2ccc(Cl)cc2)C2CCOCC2)N1S(C)(=O)=O [Example 182, (βR)-4-chloro-N-(5-fluoro-4-{2-[(2S,6R)-6-methyl-1-(methylsulfonyl)piperazin-2-yl]ethyl}pyridin-3-yl)-β-(tetrahydro-2H-pyran-4-yl)-L-phenylalaninamide] | 0.13 µM |
| COC(=O)N[C@H](C(=O)Nc1cccc(F)c1CC[C@H]1CNC[C@@H](C)N1S(C)(=O)=O)[C@@H](c1ccc(Cl)cc1)C1CCOCC1 [Example 183, (βR)-4-chloro-N-(3-fluoro-2-{2-[(2S,6R)-6-methyl-1-(methylsulfonyl)piperazin-2-yl]ethyl}phenyl)-Nα-(methoxycarbonyl)-β-(tetrahydro-2H-pyran-4-yl)-L-phenylalaninamide] | 0.067 µM |
| COC(=O)N[C@H](C(=O)Nc1cccc(F)c1CC[C@H]1CNC[C@@H](C)N1S(=O)(=O)c1ccccc1)[C@@H](c1ccc(Cl)cc1)c1cccc(F)c1 [Example 184, (βS)-4-chloro-N-(3-fluoro-2-{2-[(2S,6R)-6-methyl-1-(phenylsulfonyl)piperazin-2-yl]ethyl}phenyl)-β-(3-fluorophenyl)-Nα-(methoxycarbonyl)-L-phenylalaninamide] | 0.025 µM |
| COC(=O)N[C@H](C(=O)Nc1cccc(F)c1CC[C@H]1CNC[C@H](C)N1S(=O)(=O)c1ccccc1)[C@@H](c1ccc(Cl)cc1)c1cccc(F)c1 [Example 185, (βS)-4-chloro-N-(3-fluoro-2-{2-[(2S,6S)-6-methyl-1-(phenylsulfonyl)piperazin-2-yl]ethyl}phenyl)-β-(3-fluorophenyl)-Nα-(methoxycarbonyl)-L-phenylalaninamide] | 0.028 µM |
| COc1ccc(S(=O)(=O)N2[C@@H](CCc3c(F)cccc3NC(=O)[C@@H](N)[C@@H](Cc3ccc(F)cc3)c3ccc(Cl)cc3)CNC[C@@H]2C)cc1 [Example 186, (βS)-4-chloro-β-(4-fluorobenzyl)-N-[3-fluoro-2-(2-{(2S,6S)-1-[(4-methoxyphenyl)sulfonyl]-6-methylpiperazin-2-yl}ethyl)phenyl]-L-phenylalaninamide] | 0.086 µM |
| COC(=O)N[C@H](C(=O)Nc1cccc(F)c1CC[C@H]1CNC[C@H](C)N1S(=O)(=O)c1ccc(OC)cc1)[C@@H](Cc1ccc(F)cc1)c1ccc(Cl)cc1 [Example 187, (βS)-4-chloro-β-(4-fluorobenzyl)-N-[3-fluoro-2-(2-{(2S,6S)-1-[(4-methoxyphenyl)sulfonyl]-6-methylpiperazin-2-yl}ethyl)phenyl]-Nα-(methoxycarbonyl)-L-phenylalaninamide] | 0.035 µM |
| COc1ccc([C@H](c2ccc(Cl)cc2)[C@H](N)C(=O)Nc2cccc(F)c2CC[C@H]2CNC[C@H](C)N2S(=O)(=O)c2ccc(OC(F)(F)F)cc2)cn1 [Example 188, (βS)-4-chloro-N-(3-fluoro-2-{2-[(2S,6S)-6-methyl-1-{[4-(trifluoromethoxy)phenyl]sulfonyl}piperazin-2-yl]ethyl}phenyl)-β-(6-methoxypyridin-3-yl)-L-phenylalaninamide] | 0.055 µM |
| COC(=O)N[C@H](C(=O)Nc1cccc(F)c1CC[C@H]1CNC[C@H](C)N1S(=O)(=O)c1ccc(OC(F)(F)F)cc1)[C@@H](c1ccc(Cl)cc1)c1ccc(OC)nc1 [Example 189, (βS)-4-chloro-N-(3-fluoro-2-{2-[(2S,6S)-6-methyl-1-{[4-(trifluoromethoxy)phenyl]sulfonyl}piperazin-2-yl]ethyl}phenyl)-Nα-(methoxycarbonyl)-β-(6-methoxypyridin-3-yl)-L-phenylalaninamide] | 0.029 µM |
| COC(=O)N[C@H](C(=O)Nc1cncc(F)c1CC[C@H]1CNC[C@H](C)N1S(C)(=O)=O)[C@@H](c1ccc(F)cc1)c1cc(F)cc(F)c1 [Example 190, (βS)-β-(3,5-difluorophenyl)-4-fluoro-N-(5-fluoro-4-{2-[(2S,6S)-6-methyl-1-(methylsulfonyl)piperazin-2-yl]ethyl}pyridin-3-yl)-Nα-(methoxycarbonyl)-L-phenylalaninamide] | 0.013 µM |
| C[C@H]1CNC[C@H](CCc2c(F)cncc2NC(=O)[C@@H](N)[C@@H](c2ccc(F)cc2)c2cc(F)cc(F)c2)N1S(C)(=O)=O [Example 191, (βS)-β-(3,5-difluorophenyl)-4-fluoro-N-(5-fluoro-4-{2-[(2S,6S)-6-methyl-1-(methylsulfonyl)piperazin-2-yl]ethyl}pyridin-3-yl)-L-phenylalaninamide] | 0.02 µM |
| C[C@@H]1CNC[C@H](CCc2c(F)cccc2NC(=O)[C@@H](N)[C@@H](c2ccc(F)cc2)c2cc(F)cc(F)c2)N1S(=O)(=O)C1CC1 [Example 192, (βS)-N-(2-{2-[(2S,6R)-1-(cyclopropylsulfonyl)-6-methylpiperazin-2-yl]ethyl}-3-fluorophenyl)-β-(3,5-difluorophenyl)-4-fluoro-L-phenylalaninamide] | 0.036 µM |
| C[C@H]1CNC[C@H](CCc2c(F)cccc2NC(=O)[C@@H](N)[C@@H](Cc2ccc(F)cc2)c2ccc(Cl)cc2)N1S(=O)(=O)c1ccccc1 [Example 193, (βS)-4-chloro-β-(4-fluorobenzyl)-N-(3-fluoro-2-{2-[(2S,6S)-6-methyl-1-(phenylsulfonyl)piperazin-2-yl]ethyl}phenyl)-L-phenylalaninamide] | 0.056 µM |
| COC(=O)N[C@H](C(=O)Nc1cccc(F)c1CC[C@H]1CNC[C@H](C)N1S(=O)(=O)c1ccccc1)[C@@H](Cc1ccc(F)cc1)c1ccc(Cl)cc1 [Example 194, (βS)-4-chloro-β-(4-fluorobenzyl)-N-(3-fluoro-2-{2-[(2S,6S)-6-methyl-1-(phenylsulfonyl)piperazin-2-yl]ethyl}phenyl)-Nα-(methoxycarbonyl)-L-phenylalaninamide] | 0.034 µM |
| C[C@@H]1CNC[C@H](CCc2c(F)cccc2NC(=O)[C@@H](N)[C@@H](Cc2ccc(F)cc2)c2ccc(Cl)cc2)N1S(=O)(=O)c1ccccc1 [Example 195, (βS)-4-chloro-β-(4-fluorobenzyl)-N-(3-fluoro-2-{2-[(2S,6R)-6-methyl-1-(phenylsulfonyl)piperazin-2-yl]ethyl}phenyl)-L-phenylalaninamide] | 0.077 µM |
| COC(=O)N[C@H](C(=O)Nc1cccc(F)c1CC[C@H]1CNC[C@@H](C)N1S(=O)(=O)c1ccccc1)[C@@H](Cc1ccc(F)cc1)c1ccc(Cl)cc1 [Example 196, (βS)-4-chloro-β-(4-fluorobenzyl)-N-(3-fluoro-2-{2-[(2S,6R)-6-methyl-1-(phenylsulfonyl)piperazin-2-yl]ethyl}phenyl)-Nα-(methoxycarbonyl)-L-phenylalaninamide] | 0.049 µM |
| C[C@H]1CNC[C@H](CCc2c(F)cncc2NC(=O)[C@@H](N)[C@@H](c2ccc(F)cc2)c2cc(F)cc(F)c2)N1S(=O)(=O)C1CC1 [Example 197, (BS)-N-(4-{2-[(2S,6S)-1-(cyclopropylsulfonyl)-6-methylpiperazin-2-yl]ethyl}-5-fluoropyridin-3-yl)-β-(3,5-difluorophenyl)-4-fluoro-L-phenylalaninamide] | 0.018 µM |
| C[C@H]1CNC[C@H](CCc2c(F)cccc2NC(=O)[C@@H](N)[C@@H](c2ccc(Cl)cc2)c2cc(F)cc(F)c2)N1S(C)(=O)=O [Example 198, (βS)-4-chloro-β-(3,5-difluorophenyl)-N-(3-fluoro-2-{2-[(2S,6S)-6-methyl-1-(methylsulfonyl)piperazin-2-yl]ethyl}phenyl)-L-phenylalaninamide] | 0.021 µM |
| C[C@H]1CNC[C@H](CCc2c(F)cccc2NC(=O)[C@@H](N)[C@@H](c2ccc(Cl)cc2)c2cc(F)cc(F)c2)N1S(=O)(=O)C1CC1 [Example 199, (βS)-4-chloro-N-(2-{2-[(2S,6S)-1-(cyclopropylsulfonyl)-6-methylpiperazin-2-yl]ethyl}-3-fluorophenyl)-β-(3,5-difluorophenyl)-L-phenylalaninamide] | 0.02 µM |
